Data as given in ChEMBL document CHEMBL1212818, “Polyamines inhibit carbonic anhydrases by anchoring to the zinc-coordinated water molecule” (J Med Chem, 2010).

What was measured:
[1] = target: Carbonic anhydrase 5A, mitochondrial (Homo sapiens, UniProt P35218)
Carbonic anhydrase 9 = Carbonic anhydrase 9 (Homo sapiens, UniProt Q16790)
[2] = target: Carbonic anhydrase 5B, mitochondrial (Homo sapiens, UniProt Q9Y2D0)
Carbonic anhydrase 7 = Carbonic anhydrase 7 (Homo sapiens, UniProt P43166)
Carbonic anhydrase 14 = Carbonic anhydrase 14 (Homo sapiens, UniProt Q9ULX7)
Carbonic anhydrase 14, sequence (Q9ULX7 whole entry): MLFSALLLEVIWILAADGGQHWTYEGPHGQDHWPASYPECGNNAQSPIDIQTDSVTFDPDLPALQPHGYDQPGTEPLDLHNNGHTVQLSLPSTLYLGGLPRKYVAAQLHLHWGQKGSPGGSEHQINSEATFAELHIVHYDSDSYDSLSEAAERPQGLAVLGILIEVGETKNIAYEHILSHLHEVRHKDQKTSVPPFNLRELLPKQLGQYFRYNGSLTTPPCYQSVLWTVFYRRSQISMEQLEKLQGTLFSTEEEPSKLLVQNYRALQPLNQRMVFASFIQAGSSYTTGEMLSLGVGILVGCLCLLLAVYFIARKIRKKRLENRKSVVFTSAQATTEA

Carbonic anhydrase 6 = Carbonic anhydrase 6 (Homo sapiens, UniProt P23280)
Carbonic anhydrase 6, sequence (P23280 whole entry): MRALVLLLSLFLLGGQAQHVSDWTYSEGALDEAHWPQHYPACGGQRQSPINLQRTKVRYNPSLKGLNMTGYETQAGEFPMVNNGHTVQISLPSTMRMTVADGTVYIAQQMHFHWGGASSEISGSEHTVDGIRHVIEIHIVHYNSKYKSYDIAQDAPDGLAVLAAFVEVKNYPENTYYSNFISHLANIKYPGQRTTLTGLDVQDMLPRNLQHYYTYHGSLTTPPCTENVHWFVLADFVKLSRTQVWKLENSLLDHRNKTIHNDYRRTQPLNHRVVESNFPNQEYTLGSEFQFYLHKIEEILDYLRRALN

Carbonic anhydrase 1 = Carbonic anhydrase 1 (Homo sapiens, UniProt P00915)
Carbonic anhydrase 1, sequence (P00915 whole entry): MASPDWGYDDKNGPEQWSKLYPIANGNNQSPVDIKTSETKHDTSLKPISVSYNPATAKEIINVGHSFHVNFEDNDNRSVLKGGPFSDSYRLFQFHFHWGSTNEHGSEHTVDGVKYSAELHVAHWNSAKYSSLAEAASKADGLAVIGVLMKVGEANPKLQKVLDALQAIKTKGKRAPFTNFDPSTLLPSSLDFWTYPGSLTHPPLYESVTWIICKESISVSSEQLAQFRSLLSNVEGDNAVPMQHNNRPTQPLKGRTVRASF

Carbonic anhydrase 12 = Carbonic anhydrase 12 (Homo sapiens, UniProt O43570)
Carbonic anhydrase 12, sequence (O43570 whole entry): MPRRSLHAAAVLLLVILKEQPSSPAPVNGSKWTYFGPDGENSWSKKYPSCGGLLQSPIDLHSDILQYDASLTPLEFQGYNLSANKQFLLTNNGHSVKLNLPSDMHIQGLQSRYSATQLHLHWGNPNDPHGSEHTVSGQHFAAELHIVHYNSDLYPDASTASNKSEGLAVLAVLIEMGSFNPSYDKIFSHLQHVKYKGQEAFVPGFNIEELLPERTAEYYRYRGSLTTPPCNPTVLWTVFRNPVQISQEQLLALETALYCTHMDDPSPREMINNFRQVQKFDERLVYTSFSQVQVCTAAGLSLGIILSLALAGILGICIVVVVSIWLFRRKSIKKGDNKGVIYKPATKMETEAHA

Carbonic anhydrase 15 = target: T1, Carbonic anhydrase 15 (Mus musculus, UniProt Q99N23)
T1 sequence (Q99N23 whole entry): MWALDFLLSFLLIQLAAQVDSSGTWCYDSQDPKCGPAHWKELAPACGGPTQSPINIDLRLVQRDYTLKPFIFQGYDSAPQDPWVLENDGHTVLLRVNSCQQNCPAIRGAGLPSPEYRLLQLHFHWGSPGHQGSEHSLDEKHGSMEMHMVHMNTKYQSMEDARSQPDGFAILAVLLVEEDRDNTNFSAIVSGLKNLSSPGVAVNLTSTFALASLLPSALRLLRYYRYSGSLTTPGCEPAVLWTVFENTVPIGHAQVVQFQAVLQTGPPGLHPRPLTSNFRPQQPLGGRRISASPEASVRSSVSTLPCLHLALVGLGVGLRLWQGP

Carbonic anhydrase 3 = Carbonic anhydrase 3 (Homo sapiens, UniProt P07451)
Carbonic anhydrase 3, sequence (P07451 whole entry): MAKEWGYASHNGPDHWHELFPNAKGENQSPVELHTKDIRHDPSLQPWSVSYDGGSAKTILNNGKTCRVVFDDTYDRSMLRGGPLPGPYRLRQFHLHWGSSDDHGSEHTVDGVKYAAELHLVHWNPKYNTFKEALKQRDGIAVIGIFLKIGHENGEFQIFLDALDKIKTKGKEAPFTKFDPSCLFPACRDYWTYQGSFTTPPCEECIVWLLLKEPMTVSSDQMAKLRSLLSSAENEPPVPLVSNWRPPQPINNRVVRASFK

Carbonic anhydrase 13 = Carbonic anhydrase 13 (Mus musculus, UniProt Q9D6N1)
Carbonic anhydrase 13, sequence (Q9D6N1 whole entry): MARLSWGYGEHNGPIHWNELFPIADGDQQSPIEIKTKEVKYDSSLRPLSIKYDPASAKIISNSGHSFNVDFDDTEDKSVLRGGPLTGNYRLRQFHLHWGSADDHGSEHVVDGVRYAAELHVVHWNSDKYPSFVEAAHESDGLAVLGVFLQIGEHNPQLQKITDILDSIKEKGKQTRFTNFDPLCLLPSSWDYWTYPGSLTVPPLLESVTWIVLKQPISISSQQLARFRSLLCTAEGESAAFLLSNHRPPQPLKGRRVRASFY

Carbonic anhydrase 2 = Carbonic anhydrase 2 (Homo sapiens, UniProt P00918)
Carbonic anhydrase 4 = Carbonic anhydrase 4 (Homo sapiens, UniProt P22748)
Carbonic anhydrase 4, sequence (P22748 whole entry): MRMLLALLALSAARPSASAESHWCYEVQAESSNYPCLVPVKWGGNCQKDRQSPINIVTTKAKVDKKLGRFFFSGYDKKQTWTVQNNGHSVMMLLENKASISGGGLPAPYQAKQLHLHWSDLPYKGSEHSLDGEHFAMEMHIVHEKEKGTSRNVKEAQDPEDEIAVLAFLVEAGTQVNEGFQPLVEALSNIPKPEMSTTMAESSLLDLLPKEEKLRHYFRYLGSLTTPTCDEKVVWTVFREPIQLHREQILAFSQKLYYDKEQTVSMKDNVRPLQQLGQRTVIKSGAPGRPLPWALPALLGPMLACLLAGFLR

Carbonic anhydrase 5B, mitochondrial, sequence (Q9Y2D0 whole entry): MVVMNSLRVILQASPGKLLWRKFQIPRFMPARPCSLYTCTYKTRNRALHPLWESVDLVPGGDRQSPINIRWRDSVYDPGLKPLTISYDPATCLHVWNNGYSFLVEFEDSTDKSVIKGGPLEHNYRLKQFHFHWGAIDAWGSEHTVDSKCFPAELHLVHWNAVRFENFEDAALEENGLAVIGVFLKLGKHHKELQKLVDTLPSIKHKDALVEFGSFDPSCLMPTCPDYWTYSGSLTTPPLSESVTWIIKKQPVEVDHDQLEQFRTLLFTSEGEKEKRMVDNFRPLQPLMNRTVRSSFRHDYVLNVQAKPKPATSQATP
Carbonic anhydrase 5A, mitochondrial, sequence (P35218 whole entry): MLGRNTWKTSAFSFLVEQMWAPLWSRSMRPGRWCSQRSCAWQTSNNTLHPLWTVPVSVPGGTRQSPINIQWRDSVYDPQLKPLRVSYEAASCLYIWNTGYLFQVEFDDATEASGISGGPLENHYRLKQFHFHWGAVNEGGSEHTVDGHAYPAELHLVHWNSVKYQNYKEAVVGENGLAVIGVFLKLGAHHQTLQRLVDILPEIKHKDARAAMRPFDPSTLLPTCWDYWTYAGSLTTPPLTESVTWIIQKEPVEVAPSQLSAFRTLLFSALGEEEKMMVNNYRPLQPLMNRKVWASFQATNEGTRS
Carbonic anhydrase 7, sequence (P43166 whole entry): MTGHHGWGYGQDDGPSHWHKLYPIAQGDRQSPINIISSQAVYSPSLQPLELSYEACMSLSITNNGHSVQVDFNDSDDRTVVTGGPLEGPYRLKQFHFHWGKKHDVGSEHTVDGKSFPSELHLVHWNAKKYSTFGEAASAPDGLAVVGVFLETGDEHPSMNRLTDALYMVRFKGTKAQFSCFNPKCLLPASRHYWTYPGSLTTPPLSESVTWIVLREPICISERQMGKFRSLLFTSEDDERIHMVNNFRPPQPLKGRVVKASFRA

Structure (SMILES)	Ki [1]	Ki (Carbonic anhydrase 9)	Ki [2]	Ki (Carbonic anhydrase 7)	Ki (Carbonic anhydrase 14)	Ki (Carbonic anhydrase 6)	Ki (Carbonic anhydrase 1)	Ki (Carbonic anhydrase 12)	Ki (Carbonic anhydrase 15)	Ki (Carbonic anhydrase 3)	Ki (Carbonic anhydrase 13)	Ki (Carbonic anhydrase 2)	Ki (Carbonic anhydrase 4)
NCCCNCCCCNCCCN [SPERMINE]	0.84 µM	13.3 µM	0.83 µM	0.71 µM	0.86 µM	0.99 µM	231 µM	27.6 µM	74 µM	167 µM	22.6 µM	–	–
NCCCCCCN	0.61 µM	0.41 µM	0.58 µM	0.44 µM	0.64 µM	0.72 µM	12.6 µM	0.37 µM	0.66 µM	0.6 µM	0.69 µM	34.4 µM	0.45 µM
Oc1ccccc1 [PHENOL]	–	–	> 500 µM	> 500 µM	–	–	–	–	–	–	> 500 µM	–	–
CC(C)(C)OC(=O)N(CCNC(=O)C(F)(F)F)CCN(CCNC(=O)C(F)(F)F)C(=O)OC(C)(C)C	> 500 µM	> 500 µM	> 500 µM	> 500 µM	> 500 µM	> 500 µM	> 500 µM	> 500 µM	> 500 µM	> 500 µM	> 500 µM	> 500 µM	> 500 µM
CC(C)(C)OC(=O)N(CCCCN(CCCNC(=O)C(F)(F)F)C(=O)OC(C)(C)C)CCCNC(=O)C(F)(F)F	125 µM	–	103 µM	107 µM	85 µM	104 µM	> 500 µM	175 µM	> 500 µM	112 µM	179 µM	107 µM	104 µM
O=C(NCCCNCCCCNCCCNC(=O)C(F)(F)F)C(F)(F)F	1.26 µM	11.4 µM	1.05 µM	1.09 µM	6.7 µM	1.1 µM	136 µM	10.2 µM	110 µM	11.5 µM	12.6 µM	11.3 µM	0.116 µM
NCCNCCNCCN [TRIENTINE]	38 µM	39 µM	49 µM	45 µM	12.1 µM	43 µM	100 µM	57 µM	59 µM	48 µM	52 µM	64 µM	35 µM
CC(=O)NCCNc1cccc2ccccc12	106 µM	12.2 µM	107 µM	1.24 µM	34 µM	109 µM	> 500 µM	21.5 µM	110 µM	128 µM	127 µM	121 µM	12.3 µM
NCCNCCN	110 µM	10.6 µM	11 µM	12.1 µM	10.1 µM	11.5 µM	415 µM	11.4 µM	105 µM	117 µM	11.5 µM	118 µM	116 µM
CN(C)CCN(C)CCN(C)CCN(C)C	0.047 µM	0.31 µM	0.71 µM	0.73 µM	0.74 µM	0.78 µM	> 500 µM	0.52 µM	0.76 µM	0.52 µM	0.58 µM	11.2 µM	0.053 µM
CC(C)(C)OC(=O)N(CCCN(CCNC(=O)C(F)(F)F)C(=O)OC(C)(C)C)CCNC(=O)C(F)(F)F	416 µM	> 500 µM	401 µM	> 500 µM	> 500 µM	> 500 µM	> 500 µM	> 500 µM	> 500 µM	> 500 µM	> 500 µM	> 500 µM	309 µM
NCCCCCN	0.044 µM	–	0.54 µM	0.42 µM	0.5 µM	0.74 µM	13.3 µM	0.45 µM	0.65 µM	0.5 µM	0.63 µM	11 µM	0.052 µM
CC(C)(C)OC(=O)N(CCCN)CCCCN(CCCN)C(=O)OC(C)(C)C	131 µM	144 µM	107 µM	108 µM	115 µM	114 µM	137 µM	165 µM	236 µM	132 µM	136 µM	110 µM	103 µM
NCCNc1cccc2ccccc12	0.048 µM	0.51 µM	0.061 µM	0.36 µM	0.59 µM	0.64 µM	> 500 µM	0.38 µM	0.57 µM	0.42 µM	0.62 µM	103 µM	0.058 µM
O=C(NCCNCCCNCCNC(=O)C(F)(F)F)C(F)(F)F	62 µM	117 µM	54 µM	108 µM	125 µM	156 µM	122 µM	112 µM	104 µM	96 µM	131 µM	112 µM	108 µM
NCCNCCCNCCN	50 µM	48 µM	59 µM	58 µM	36 µM	53 µM	115 µM	68 µM	66 µM	63 µM	66 µM	75 µM	44 µM
O=C(NCCNCCNCCNC(=O)C(F)(F)F)C(F)(F)F	> 500 µM	> 500 µM	> 500 µM	> 500 µM	> 500 µM	> 500 µM	> 500 µM	> 500 µM	> 500 µM	> 500 µM	> 500 µM	> 500 µM	> 500 µM
NCCCCNCCCN [SPERMIDINE]	1.22 µM	1.37 µM	1.44 µM	1.23 µM	1 µM	1.41 µM	1.4 µM	44.1 µM	10 µM	11.5 µM	11.6 µM	1.11 µM	0.112 µM
